From US20020091131A1, “Epoxysuccinamide derivatives” (priority 1997, published 2002) come the findings set out here.

In one data set the target is T1, Cathepsin B (Rattus norvegicus, UniProt P00787).
T1 construct: from tissue; host or cells: liver of male Wistar rat, crude lysosome fraction
As to the kind of experiment: Cathepsin B inhibitory action (lysosome fraction, Z-Arg-Arg-MCA). It is filed as biochemical. As to conditions: pH 6.0, 30° C., read-out: Cathepsin Inhibition (IC50) Cathepsin B. On the procedure: (§1) Male rat of Wistar strain was killed by exsanguination and a ice-chilled physiological saline was introduced into portal vein for circulation Then, its liver was taken out. Thereafter, the following procedures were performed at 4°C.
(§2) The liver was minced by scissors. Five grams of minced liver were homogenized in a Potter type Teflon Homogenizer after addition of 9 volumes of 0.25 M sucrose. The homogenate was centrifuged at 800 G for 10 minutes. The resulting supernatant was further centrifuged at 12,000 G for 20 minutes. The precipitate was homogenized in 25 mL of 0.25 M sucrose, and then centrifuged at 12,000 G for 20 minutes. The resulting precipitate was further homogenized in 10 mL of 0.25 M sucrose. Thus, a lysosome fraction was obtained,
(§3) The lysosome fraction was diluted with 0.25M sucrose containing 0.336 of Triton X-100 for the use in the measurement of cathepsin L activity.
To 0.25 mL of a solution (pH: 6.0) containing 352 mM KH2PO4, 48 mM Na2HPO4, 5.32 mM EDTA·2Na and 10 mM L-cysteine were added 0.1 mL of the lysosome fraction, 5 μL of the test compound solution, and 0.545 mL of distilled water. The mixture was pre-incubated at 30° C. for 15 minutes. Thereafter, the reaction was started by the addition of 0.1 mL of a solution of 50 μM carbobenzoxy-L-arginine-L-arginine-4-methylcoumaryl-7-amide (Z-Arg-Arg-MCA, substrate). The reaction was performed at 30° C. for 20 minutes, and then terminated by addition of 1 mL of an aqueous solution (pH: 4.3) containing 100 mM sodium mono-chloroacetate, 30 mM sodium acetate and 70 mM acetic acid. The finally obtained solution was subjected to measurement of fluorescence strength (excitation wavelength: 380 nm, emission wavelength: 460 nm).

For another data set, the target named is T2, Cathepsin L (Rattus norvegicus, UniProt P07154).
T2 construct: Thus, a lysosome fraction was obtained; from tissue; host or cells: liver of male Wistar rat, crude lysosome fraction
Put plainly: Cathepsin L inhibitory action (rat liver lysosome fraction, Z-Phe-Arg-MCA, in presence of CA-074). It is filed as biochemical. To be noted: pH 5.5, 30° C., with 10^-7 M CA-074, read-out: Cathepsin Inhibition (IC50) Cathepsin L. On the procedure:
as §1, §2, §3
To 0.25 mL of a solution (pH: 5.5) containing 340 mM sodium acetate, 60 mM acetic acid, 4 mM EDTA and 8 mM dithiothreitol were added 0.1mL of the lysosome fraction, 5 μL of the test compound solution, and 0.545 mL of distilled water. The mixture was pre-incubated at 30° C. for 15 minutes. Thereafter, 0.1 mL of 50 μM by carbobenzoxy-L-phenylalanyl-L-arginine-4-methylcoumaryl-7-amide (Z-Phe-Arg-MCA) solution was added, and the reaction was started. The reaction was performed at 30° C. for 20 minutes, and then terminated by addition of 1mL of an aqueous solution (pH. 4.3) containing 100 mM sodium mono-chloroacetate, […] and 70 mM acetic acid The finally obtained solution was subjected to measurement of fluorescence strength (excitation wave-length: 380 nm, emission wavelength: 460 nm.
The Z-Phe-Arg-MCA is also decomposed by cathepsin B which is contained in the lysosome fraction.

Data set [1] has as its system rats grown with low calcium feed (bone resorption). As to the kind of experiment: Bone resorption inhibitory activity by decrease of plasma calcium concentration in rats grown with low calcium feed. It is filed as in vivo, rat. As to conditions: Wistar rats on low calcium feed, 6 hours after administration, vs non-administration group. On the procedure: (1) If rats are grown with low calcium feed, its bone weight decreases. This is because calcium is left from bone by dissolution in blood (i.e., bone resorption) so as to maintain the calcium concentration in blood at a normal level. Therefore, compounds inhibiting bone resorption in the model adopted in this experiment inhibit dissolution of calcium in blood from bone to reduce the plasma calcium concentration. Thus, compounds of the invention were evaluated in their bone resorption inhibitory activity by measuring decrease of plasma calcium concentration in the following experiment (according to J. M. Delaisse et al., Biochem. Biophys. Res. Commun., 125, 441 (1984)
Rats of Wistar strain (age: 5 to 6 weeks) were grown with a low calcium content feed (Ca: 0.02S, available from Oriental Yeast Industries, Co., Ltd.) for one week to give bone resorption-enhanced condition A test compound was dissolved in aqueous 1 nethylcellulose solution (when the test compound was-hydrophobic, Tween 20, nonionic-surfactant, was added), and administered orally to the rat in a dosage of 0.2 mL/100 g (weight of rat) At 6 hours after the administration, blood was taken from tail vein of the rat Then, the plasma calcium concentration was measured by OCPC method,
The plasma calcium concentration decreasing activity (Ca decrease rate) of the test compound was calculated by the following equation:
Ca decrease rate (%)=100×(plasma calcium concentration at 6 hours after administration of test compound)−(plasma calcium concentration at the same time in non-administration group)/(plasma calcium concentration at the same time in non-administration group)

The subject of the next data set is Rat adjuvant arthritis. As to the kind of experiment: Action on rat adjuvant arthritis (hind paw volume). It is filed as in vivo. As to conditions: Wistar rats, 300 mg/kg orally once a day for 21 days, untreated hind paw, significant vs control, risk <1%. On the procedure:
Rat adjuvant arthritis which is considered as a model of rheumatoid arthritis of human being was employed for evaluation of the compound of the invention.
Male rats of Wistar strain (age: 5 weeks) were sensitized by subcutaneous injection of Mycobacterium Butyricum which was suspended in liquid paraffin into the right hind paw. From the next day, a test compound (the compound of the aforementioned Example 5) was orally administered at a dosage of 300 mg/kg once a day for 21 days (administration group: 8 rats). After the last administration was complete, a volume of the untreated hind paw was measured by means of Volume Differential Meter and compared with that of Control group (8 rats, non-administration group) In addition, a non-adjuvant treatment group (normal group: 8 rats) was subjected to the same measurement. Inhibition of expansion of the hind paw by the test compound (Inhibition rate) was calculated by the following equation:
Inhibition rate (%)=100×(administration group−control group)/(normal group−control group)

The test system of another data set is ovariectomized rats. Put plainly: Action on ovariectomized rats (postmenopausal osteoporosis model), bone density by p-QCT. It is filed as in vivo, rat. To be noted: ovariectomized SD female rats, 300 mg/kg once a day for 4 weeks; average ± SD; control 543.7 ± 31.4, false operation 658.8 ± 46.3; P < 0.01 vs control. On the procedure:
The ovariectomized rats were employed as models of postmenopausal osteoporosis, for evaluating the compound of the invention. (2) Experimental Procedures
The ovaries on both sides were removed surgically in SD female rats (age; 13 weeks). From the next day, a test compound (compound of Example 5) was administered at 300 mg/kg to the rats once a day for 4 weeks (administration group: 8 rats). After the last administration was complete, the fourth vertebrae lumbale was taken out, and the total bone density was measured by means of p-QCT (Peripheral Bone Density-Measuring Apparatus) and compared with the bone density of the control group (7 rats). In addition, rats treated by false-operation were also subjected to the same measurement, […]

Where [2] appears, read: Rattus norvegicus, po, 15 mg/kg p.o., read-out: Measured Plasma Ca Concentration (Ca decrease rate).

As a reminder, the IC50 is the concentration needed to halve the response being measured. The term melting point denotes the temperature, or range, at which the solid turns liquid.

T1 sequence (P00787 80-333): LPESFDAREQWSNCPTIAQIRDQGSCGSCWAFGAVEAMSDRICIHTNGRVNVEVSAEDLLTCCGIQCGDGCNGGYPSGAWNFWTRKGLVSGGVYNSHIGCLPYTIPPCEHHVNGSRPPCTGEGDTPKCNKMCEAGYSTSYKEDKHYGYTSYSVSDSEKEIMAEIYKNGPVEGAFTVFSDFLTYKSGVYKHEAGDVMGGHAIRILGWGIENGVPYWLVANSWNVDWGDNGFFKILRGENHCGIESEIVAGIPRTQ
T2 sequence (P07154 114-334): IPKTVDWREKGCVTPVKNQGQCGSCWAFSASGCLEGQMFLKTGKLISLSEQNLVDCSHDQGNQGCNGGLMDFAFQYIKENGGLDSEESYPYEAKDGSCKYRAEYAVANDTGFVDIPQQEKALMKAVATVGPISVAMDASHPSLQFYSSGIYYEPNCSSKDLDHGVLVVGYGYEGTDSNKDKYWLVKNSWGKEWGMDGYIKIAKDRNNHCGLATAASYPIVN

Regarding `CC(C)C[C@H](NC(=O)[C@H]1O[C@@H]1C(=O)O)[C@H](O)c1ccccc1` [Example 2, (2S,3S)-3-[[1-(S)-[α-(R)-hydroxybenzyl]-3-methylbutyl]-carbamoyl]oxirane-2-carboxylic acid], the half-inhibitory concentration (IC50) on Cathepsin B came out at 120 nM; on Cathepsin L, 11 nM.

For the compound `CCOC(=O)[C@H]1O[C@@H]1C(=O)N[C@@H](CC(C)C)C(=O)c1ccccc1` [Example 7, Ethyl (2S,3S)-3-[[1-(S)-benzoyl-3-methylbutyl]carbamoyl]-oxirane-2-carboxylate], the change in vivo at 15 mg/kg in data set [1] (setting [2]) is -13.6%.

On to `CCOC(=O)[C@H]1O[C@@H]1C(=O)N[C@H](COCC(C)C)CC(C)C` [Example 18a, Ethyl (2S,3S)-3-[[1-(S)-isobutoxyrethyl-3-methylbutyl]-carbamoyl]oxirane-2-carboxylate], for which the “Measured Plasma Ca Concentration (Ca decrease rate)” value in data set [1] (15 mg/kg p.o.) was −24.5%.

As for `CC(C)C[C@H](NC(=O)[C@H]1O[C@@H]1C(=O)O)[C@H](OCc1ccccc1)c1ccccc1` [Example 22, (2S,3S)-3-[[1-(S)-[α-(R)-(benzyloxy)benzyl]-3-methyl-butyl]carbamoyl]oxirane-2-carboxylic Acid], the half-inhibitory concentration (IC50) was found to be 41 nM at Cathepsin B and 3.3 nM on Cathepsin L.

On to `CCC(C)[C@H](NC(=O)[C@H]1O[C@@H]1C(=O)O)[C@H](O)c1ccccc1` (stereo partly drawn) [Example 9, (2S,3S)-3-[[1-(S)-[α-(R)-hydroxybenzyl]-2-methylbutyl]carbamoyl]oxirane-2-carboxylic acid], for which the results for the half-inhibitory concentration (IC50) on Cathepsin B and at Cathepsin L were 210 nM and 57 nM, respectively.

On to `CC(C)C[C@@H](COCc1ccccc1)NC(=O)[C@H]1O[C@@H]1C(=O)O` [Example 24, Sodium (2S,3S)-3-[[1-(S)-benzyloxymethyl-3-methylbutyl]-carbamoyl]oxirane-2-carboxylate], for which the results for the half-inhibitory concentration (IC50) on Cathepsin B and at Cathepsin L were 28 nM and 6.9 nM, respectively.

The compound `CCOC(=O)[C@H]1O[C@@H]1C(=O)N[C@@H](CC(C)C)[C@H](OC)c1ccccc1` [Example 5, Ethyl (2S,3S)-3-[[1-(S)-[α-(R)-methoxybenzyl]-3-methyl-butyl]carbamoyl]oxirane-2-carboxylate] had a melting point of 108 to 109 °C. Moreover, the “Inhibition of expansion of the hind paw (Inhibition rate)” value with Rat adjuvant arthritis was determined as 42%. In addition, the change in vivo at 15 mg/kg in data set [1] (setting [2]) was -20.4%. The “Total bone density of the fourth vertebrae lumbale” value in the data set with ovariectomized rats came to 617.8 ± 37.9 mg/mL.

In the case of `CO[C@H](c1ccccc1)[C@H](CC(C)C)NC(=O)[C@H]1O[C@@H]1C(=O)OC(C)C` [Example 14, Isopropyl (2S,3S)-3-[[1-(S)-[α-(R)-methoxybenzyl]-3-methylbutyl]carbamoyl]oxirane-2-carboxylate], the change in vivo at 5 mg/kg in data set [1] (Rattus norvegicus, po, 5 mg/kg p.o., read-out: Measured Plasma Ca Concentration (Ca decrease rate)) was -9.9%.

Take `CO[C@H](c1ccccc1)[C@H](CC(C)C)NC(=O)[C@H]1O[C@@H]1C(=O)O` [Example 11, (2S,3S)-3-[[1-(S)-[α-(R)-methoxybenzyl]-3-methylbutyl]-carbamoyl]oxirane-2-carboxylic Acid]: the IC50 amounted to 85 nM on Cathepsin B and 18 nM on Cathepsin L. Further, in data set [1] (setting [2]), the change in vivo at 15 mg/kg is -17.3%.

Take `CC(C)C[C@@H](CO)NC(=O)[C@H]1O[C@@H]1C(=O)O` [Example 12, (2S,3S)-3-[[1-(S)-hydroxymethyl-3-methylbutyl]carbamoyl]-oxirane-2-carboxylic Acid]: the half-inhibitory concentration (IC50) at Cathepsin B worked out at 100 nM; on Cathepsin L it was 94 nM.

Regarding `CCOC(=O)[C@H]1O[C@@H]1C(=O)N[C@@H](CC(C)C)[C@H](O)c1ccccc1` [Example 1a, Ethyl (2S,3S)-3-[[1-(S)-[α-(R)-hydroxybenzyl]-3-methyl-butyl]carbamoyl]oxirane-2-carboxylate], the change in vivo at 15 mg/kg in data set [1] (setting [2]) was -12.5%.

Consider `CCOC(=O)[C@H]1O[C@@H]1C(=O)N[C@H](COCc1ccccc1)CC(C)C` [Example 17, Ethyl (2S,3S)-3-[[1-(S)-benzyloxymethyl-3-methylbutyl]-carbamoyl]oxirane-2-carboxylate], for which the change in vivo at 15 mg/kg in data set [1] (setting [2]) was -15.4%.

For `O=C(O)[C@H]1O[C@@H]1C(=O)N[C@H](COCc1ccccc1)Cc1ccccc1` [Example 23], the 50% inhibitory concentration (IC50) on Cathepsin L came out at 11 nM.

In the case of `CCOC(=O)[C@H]1O[C@@H]1C(=O)N[C@@H](CC(C)C)[C@H](OC(C)=O)c1ccccc1` [Example 13, Ethyl (2S,3S)-3-[[1(S)-[α-(R)-acetoxybenzyl]-3-methyl-butyl]carbamoyl]oxirane-2-carboxylate], the change in vivo at 15 mg/kg in data set [1] (setting [2]) is -14.7%.

As for `CCOC(=O)[C@H]1O[C@@H]1C(=O)N[C@H](C(=O)c1ccccc1)C(C)C` [Example 8, Ethyl (2S,3S)-3-[[1-(S)-benzoyl-2-methylpropyl]-carbamoyl]oxirane-2-carboxylate], in data set [1] (setting [2]), the change in vivo at 15 mg/kg is -15.8%.
